Target: Serine/threonine-protein kinase mTOR (Homo sapiens, UniProt P42345)
Test: Inhibition of recombinant mTOR assessed as inhibition of S6K T389 phosphorylation by DELFIA assay

IC50: 5 nM
Compound: COC(=O)Nc1ccc(-c2nc(N3CCOCC3)c3cnn(C4CCN(C(=O)OC)CC4)c3n2)cc1
